Values quoted from earlier work, collected in US8969412B2, “Use for a composition comprising chloroprocaine HCL, a new composition comprising chloroprocaine HCL and a method for its manufacture” (Sintetica S.A., priority 2005, dated 2015).

How the values were obtained:
[1] = in vivo
[2] = intrathecal anaesthesia
[3] = intrathecal application

CCN(CC)CCOC(=O)c1ccc(N)cc1Cl [Chloroprocaine, 2-(diethylaminoethyl)-4-amino-chlorobenzoate]
systemic toxicity [1]: very low systemic toxicity

CCN(CC)CCOC(=O)c1ccc(N)cc1 [procaine]
inadequacy rate [2]: 17%

CCN(CC)CC(=O)Nc1c(C)cccc1C [lidocaine]
transient neurologic syndrome (TNS) [3]: associated with symptoms of so-called transient neurologic syndrome (TNS)
